Several values for one entry are separate records, joined by “and”; a condition that tells them apart may be missing. Identical values can stand only once.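 Test compounds were applied to cells in 96-well plates for 48 hours at 5 doses. Here, GI50 denotes the concentration required for 50% inhibition of growth. TGI: total growth inhibition.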
How the values were obtained:
Assay in all cases: NCI anticancer screen, dose series, 48 h
M14 melanoma = test system: M14 melanoma
LXFL 529 NSCLC = test system: LXFL 529 NSCLC
NCI-H226 lung = test system: NCI-H226 lung
OVCAR-4 ovarian = test system: OVCAR-4 ovarian
OVCAR-5 ovarian = test system: OVCAR-5 ovarian
UACC-257 melanoma = test system: UACC-257 melanoma
SK-OV-3 ovarian = test system: SK-OV-3 ovarian
CCRF-CEM leukemia = test system: CCRF-CEM leukemia
HL-60(TB) leukemia = test system: HL-60(TB) leukemia
SW-620 colon = test system: SW-620 colon
UO-31 renal = test system: UO-31 renal
MOLT-4 leukemia = test system: MOLT-4 leukemia
HCT-15 colon = test system: HCT-15 colon
NCI-H23 lung = test system: NCI-H23 lung
MALME-3M melanoma = test system: MALME-3M melanoma
K-562 leukemia = test system: K-562 leukemia
KM20L2 colon = test system: KM20L2 colon
LOX IMVI melanoma = test system: LOX IMVI melanoma
CAKI-1 renal = test system: CAKI-1 renal
ACHN renal = test system: ACHN renal
HOP-92 NSCLC = test system: HOP-92 NSCLC
IGROV1 ovarian = test system: IGROV1 ovarian
SK-MEL-5 melanoma = test system: SK-MEL-5 melanoma
SR leukemia = test system: SR leukemia
DLD-1 colon = test system: DLD-1 colon
HOP-62 NSCLC = test system: HOP-62 NSCLC
SF-268 CNS = test system: SF-268 CNS
SN12C renal = test system: SN12C renal
DMS 273 small cell lung = test system: DMS 273 small cell lung
A549 NSCLC = test system: A549 NSCLC
UACC-62 melanoma = test system: UACC-62 melanoma
786-0 renal = test system: 786-0 renal
RPMI-8226 leukemia = test system: RPMI-8226 leukemia
SK-MEL-28 melanoma = test system: SK-MEL-28 melanoma
NCI-H460 lung = test system: NCI-H460 lung
HOP-18 NSCLC = test system: HOP-18 NSCLC
HCC-2998 colon = test system: HCC-2998 colon
HT29 colon = test system: HT29 colon
M19-MEL melanoma = test system: M19-MEL melanoma
SF-295 CNS = test system: SF-295 CNS
COLO 205 colon = test system: COLO 205 colon
SNB-19 CNS = test system: SNB-19 CNS
OVCAR-3 ovarian = test system: OVCAR-3 ovarian
U251 CNS = test system: U251 CNS
HCT-116 colon = test system: HCT-116 colon
DMS 114 small cell lung = test system: DMS 114 small cell lung
A498 renal = test system: A498 renal
OVCAR-8 ovarian = test system: OVCAR-8 ovarian
SNB-78 CNS = test system: SNB-78 CNS
EKVX NSCLC = test system: EKVX NSCLC
TK-10 renal = test system: TK-10 renal
KM12 colon = test system: KM12 colon
RXF 393 renal = test system: RXF 393 renal
SF-539 CNS = test system: SF-539 CNS
SNB-75 CNS = test system: SNB-75 CNS
SK-MEL-2 melanoma = test system: SK-MEL-2 melanoma
NCI-H522 lung = test system: NCI-H522 lung
DU-145 prostate = test system: DU-145 prostate
MDA-N = test system: MDA-N
BT-549 breast = test system: BT-549 breast
MDA-MB-435 = test system: MDA-MB-435
NCI/ADR-RES ovarian = test system: NCI/ADR-RES ovarian
MCF7 breast = test system: MCF7 breast
T-47D breast = test system: T-47D breast
MDA-MB-231 breast = test system: MDA-MB-231 breast
HS 578T breast = test system: HS 578T breast
PC-3 prostate = test system: PC-3 prostate

## CCN(CC)CCCCC1CCN(CC(=O)N2CC(C)C(=O)Nc3ccccc32)CC1 (configuration not stated)
M14 melanoma
  TGI: > 100 µM
LXFL 529 NSCLC
  TGI: > 100 µM
NCI-H226 lung
  TGI: > 100 µM
OVCAR-4 ovarian
  TGI: > 100 µM
OVCAR-5 ovarian
  TGI: > 100 µM
UACC-257 melanoma
  TGI: > 100 µM
SK-OV-3 ovarian
  TGI: > 100 µM
CCRF-CEM leukemia
  TGI: > 100 µM
HL-60(TB) leukemia
  TGI: > 100 µM
SW-620 colon
  TGI: > 100 µM
UO-31 renal
  TGI: > 100 µM
MOLT-4 leukemia
  TGI: > 100 µM
HCT-15 colon
  TGI: > 100 µM
NCI-H23 lung
  TGI: > 100 µM
MALME-3M melanoma
  TGI: > 100 µM
K-562 leukemia
  TGI: > 100 µM
KM20L2 colon
  TGI: > 100 µM
LOX IMVI melanoma
  TGI: > 100 µM
CAKI-1 renal
  TGI: > 100 µM
ACHN renal
  TGI: > 100 µM
HOP-92 NSCLC
  TGI: > 100 µM
IGROV1 ovarian
  TGI: > 100 µM
SK-MEL-5 melanoma
  TGI: > 100 µM
SR leukemia
  TGI: > 100 µM
DLD-1 colon
  TGI: > 100 µM
HOP-62 NSCLC
  TGI: > 100 µM
SF-268 CNS
  TGI: > 100 µM
SN12C renal
  TGI: > 100 µM
DMS 273 small cell lung
  TGI: > 100 µM
A549 NSCLC
  TGI: > 100 µM
UACC-62 melanoma
  TGI: > 100 µM
786-0 renal
  TGI: > 100 µM
RPMI-8226 leukemia
  TGI: > 100 µM
SK-MEL-28 melanoma
  TGI: > 100 µM
NCI-H460 lung
  TGI: > 100 µM
HOP-18 NSCLC
  TGI: > 100 µM
HCC-2998 colon
  TGI: > 100 µM
HT29 colon
  TGI: > 100 µM
M19-MEL melanoma
  TGI: > 100 µM
SF-295 CNS
  TGI: > 100 µM
COLO 205 colon
  TGI: > 100 µM
SNB-19 CNS
  TGI: > 100 µM
OVCAR-3 ovarian
  TGI: > 100 µM
U251 CNS
  TGI: > 100 µM
HCT-116 colon
  TGI: > 100 µM
DMS 114 small cell lung
  TGI: > 100 µM
A498 renal
  TGI: > 100 µM

## COc1cc(C2c3cc4c(cc3[C@@H](Nc3ccc(C(=O)O)cc3)C3COC(=O)[C@H]23)OCO4)cc(OC)c1O (some centres not stated)
M14 melanoma
  TGI: 59.9 µM and > 17.5 µM
LXFL 529 NSCLC
  TGI: 39.8 µM and > 17.5 µM
NCI-H226 lung
  TGI: 15.8 µM and 13.9 µM
OVCAR-4 ovarian
  TGI: > 100 µM
OVCAR-8 ovarian
  TGI: 54 µM and > 17.5 µM
OVCAR-5 ovarian
  GI50: 48.3 µM and > 17.5 µM
  TGI: > 100 µM
UACC-257 melanoma
  TGI: > 100 µM
SK-OV-3 ovarian
  GI50: 34.4 µM and 15.3 µM
  TGI: > 100 µM
CCRF-CEM leukemia
  TGI: 15.1 µM and 8.82 µM
HL-60(TB) leukemia
  TGI: 22.8 µM and 16.7 µM
SW-620 colon
  GI50: 11.9 µM and 3.89 µM
  TGI: 62.4 µM and > 17.5 µM
UO-31 renal
  TGI: > 100 µM
MOLT-4 leukemia
  TGI: 5.47 µM and 2.66 µM
HCT-15 colon
  TGI: 32.8 µM and > 17.5 µM
NCI-H23 lung
  TGI: 31.1 µM and > 17.5 µM
MALME-3M melanoma
  TGI: 47.9 µM and > 17.5 µM
K-562 leukemia
  GI50: 14.5 µM and 6.68 µM
  TGI: > 100 µM
KM20L2 colon
  GI50: 36.8 µM and > 17.5 µM
  TGI: > 100 µM
LOX IMVI melanoma
  TGI: 18.7 µM and 5.1 µM
CAKI-1 renal
  TGI: 47.1 µM and > 17.5 µM
SNB-78 CNS
  TGI: 92.7 µM and 17.4 µM
ACHN renal
  TGI: > 100 µM
HOP-92 NSCLC
  TGI: 18.5 µM and > 17.5 µM
IGROV1 ovarian
  TGI: 68.6 µM and > 17.5 µM
SK-MEL-5 melanoma
  TGI: 38.3 µM and > 17.5 µM
EKVX NSCLC
  TGI: > 100 µM
DLD-1 colon
  GI50: 17.2 µM and 6.86 µM
  TGI: 54.9 µM and > 17.5 µM
HOP-62 NSCLC
  TGI: 33.9 µM and > 17.5 µM
TK-10 renal
  TGI: > 100 µM
SF-268 CNS
  TGI: 69.1 µM and > 17.5 µM
KM12 colon
  TGI: 68.5 µM and > 17.5 µM
SN12C renal
  TGI: 75.6 µM and > 17.5 µM
DMS 273 small cell lung
  TGI: 28.5 µM and > 17.5 µM
RXF 393 renal
  TGI: 37 µM and > 17.5 µM
A549 NSCLC
  TGI: > 100 µM
UACC-62 melanoma
  TGI: 28.2 µM and > 17.5 µM
786-0 renal
  GI50: 12.3 µM and 3.07 µM
  TGI: 35 µM and > 17.5 µM
RPMI-8226 leukemia
  GI50: 5.7 µM and 2.71 µM
  TGI: 30.2 µM and 6.54 µM
SK-MEL-28 melanoma
  TGI: > 100 µM
NCI-H460 lung
  TGI: 17.6 µM and > 17.5 µM
HOP-18 NSCLC
  GI50: 16.8 µM and 5.25 µM
  TGI: > 100 µM
HCC-2998 colon
  TGI: 53.8 µM and > 17.5 µM
HT29 colon
  TGI: 64.8 µM and > 17.5 µM
M19-MEL melanoma
  TGI: 49.6 µM and > 17.5 µM
SF-295 CNS
  TGI: > 100 µM
COLO 205 colon
  GI50: 26.8 µM and 12.9 µM
  TGI: > 100 µM
SF-539 CNS
  TGI: 32.7 µM and > 17.5 µM
SNB-75 CNS
  TGI: 27.6 µM and > 17.5 µM
SNB-19 CNS
  TGI: > 100 µM
OVCAR-3 ovarian
  TGI: 66.9 µM and > 17.5 µM
U251 CNS
  GI50: 12.6 µM and 6.13 µM
  TGI: 53 µM and > 17.5 µM
HCT-116 colon
  TGI: 43.9 µM and > 17.5 µM
DMS 114 small cell lung
  GI50: 13.9 µM and 5.44 µM
  TGI: 47.8 µM and > 17.5 µM
A498 renal
  TGI: 68.8 µM and > 17.5 µM
SK-MEL-2 melanoma
  TGI: 75.3 µM and > 17.5 µM

## CCCCCCNC(=O)C1=C(C)NC(C)=C(C(=O)NCCCCCC)C1
M14 melanoma
  TGI: > 100 µM
NCI-H226 lung
  TGI: > 100 µM
OVCAR-4 ovarian
  TGI: > 100 µM
OVCAR-8 ovarian
  TGI: > 100 µM
OVCAR-5 ovarian
  TGI: > 100 µM
UACC-257 melanoma
  TGI: > 100 µM
SK-OV-3 ovarian
  TGI: > 100 µM
NCI-H522 lung
  TGI: > 100 µM
CCRF-CEM leukemia
  TGI: > 100 µM
HL-60(TB) leukemia
  TGI: > 100 µM
SW-620 colon
  TGI: > 100 µM
UO-31 renal
  TGI: > 100 µM
MOLT-4 leukemia
  TGI: > 100 µM
HCT-15 colon
  TGI: > 100 µM
NCI-H23 lung
  TGI: > 100 µM
DU-145 prostate
  TGI: > 100 µM
K-562 leukemia
  TGI: > 100 µM
LOX IMVI melanoma
  TGI: > 100 µM
CAKI-1 renal
  TGI: > 100 µM
MDA-N
  TGI: > 100 µM
ACHN renal
  TGI: > 100 µM
BT-549 breast
  TGI: > 100 µM
HOP-92 NSCLC
  TGI: > 100 µM
IGROV1 ovarian
  TGI: > 100 µM
SK-MEL-5 melanoma
  TGI: > 100 µM
SR leukemia
  TGI: > 100 µM
MDA-MB-435
  TGI: > 100 µM
EKVX NSCLC
  TGI: > 100 µM
NCI/ADR-RES ovarian
  TGI: > 100 µM
HOP-62 NSCLC
  TGI: > 100 µM
TK-10 renal
  TGI: > 100 µM
SF-268 CNS
  TGI: > 100 µM
MCF7 breast
  TGI: > 100 µM
KM12 colon
  TGI: > 100 µM
SN12C renal
  TGI: > 100 µM
T-47D breast
  TGI: > 100 µM
RXF 393 renal
  TGI: > 100 µM
MDA-MB-231 breast
  TGI: > 100 µM
A549 NSCLC
  TGI: > 100 µM
UACC-62 melanoma
  TGI: > 100 µM
786-0 renal
  TGI: > 100 µM
RPMI-8226 leukemia
  TGI: > 100 µM
SK-MEL-28 melanoma
  TGI: > 100 µM
NCI-H460 lung
  TGI: > 100 µM
HS 578T breast
  TGI: > 100 µM
HCC-2998 colon
  TGI: > 100 µM
HT29 colon
  TGI: > 100 µM
SF-295 CNS
  TGI: > 100 µM
COLO 205 colon
  TGI: > 100 µM
PC-3 prostate
  TGI: > 100 µM
SF-539 CNS
  TGI: > 100 µM
SNB-75 CNS
  TGI: > 100 µM
SNB-19 CNS
  TGI: > 100 µM
OVCAR-3 ovarian
  TGI: > 100 µM
U251 CNS
  TGI: > 100 µM
HCT-116 colon
  TGI: > 100 µM
A498 renal
  TGI: > 100 µM
SK-MEL-2 melanoma
  TGI: > 100 µM

Source: PubChem BioAssay (NCI)
